# Target: PD-L1 His protein / PD-1 Fc protein (Homo sapiens, UniProt Q9NZQ7)
# Assay: HTRF Assay (PD-1/PD-L1 interaction)
# Assay type: binding
# Conditions: PD-L1 His 6 nM, PD-1 Fc 6 nM
# Procedure, shortened: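 Compounds tested from 20 μM down to 0.001 μM (3-fold) against 6 nM PD-L1 His and 6 nM PD-1 Fc, 15 min room temperature incubation. Detection after 1 h at room temperature with Tb cryptate anti-6HIS and XL665 anti-human IgG reagents (mixture at 0.35 nM and 6.7 nM), HTRF signal.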
# Chain of PD-L1 His protein / PD-1 Fc protein (Q9NZQ7 19-238 limits assumed): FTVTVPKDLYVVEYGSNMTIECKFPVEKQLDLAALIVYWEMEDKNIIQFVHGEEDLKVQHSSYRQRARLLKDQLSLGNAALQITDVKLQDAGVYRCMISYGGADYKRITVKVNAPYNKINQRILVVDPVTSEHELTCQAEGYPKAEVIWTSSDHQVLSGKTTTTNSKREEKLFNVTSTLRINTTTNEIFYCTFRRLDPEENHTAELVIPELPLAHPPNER
row,SMILES,IC50 [nM]
1,"COc1nc(-c2cccc(-c3cccc(-c4cc5c(=O)n(C)c(CNC67CC(O)(C6)C7)nn5c4)c3Cl)c2Cl)ccc1CNC[C@@H]1CCC(=O)N1 [Example 473, (S)-6-(2,2′-Dichloro-3′-(6-methoxy-5-((((5-oxopyrrolidin-2-yl)methyl)amino)methyl)pyridin-2-yl)-[1,1′-biphenyl]-3-yl)-2-(((3-hydroxybicyclo[1.1.1]pentan-1-yl)amino)methyl)-3-methylpyrrolo[2,1-f][1,2,4]triazin-4(3H)-one]",5.3
2,"COc1nc(-c2cccc(-c3cccc(-c4ccc5oc(CNC[C@@H]6CCC(=O)N6)nc5c4)c3Cl)c2Cl)ccc1CNC[C@@H]1CCC(=O)N1 [Example 247, (S)-5-((((6-(2,2′-Dichloro-3′-(2-(((((S)-5-oxopyrrolidin-2-yl)methyl)amino)methyl)benzo[d]oxazol-5-yl)-[1,1′-biphenyl]-3-yl)-2-methoxypyridin-3-yl)methyl)amino)methyl)pyrrolidin-2-one]",450
3,"COc1nc(-c2cccc(-c3cccc(-c4ccn5c(=O)c(CNC[C@@H]6CCC(=O)N6)cnc5c4)c3Cl)c2Cl)ccc1C1=NCC(O)CN1 (stereo partly drawn) [Example 178, 8-(2,2′-Dichloro-3′-(5-(5-hydroxy-1,4,5,6-tetrahydropyrimidin-2-yl)-6-methoxypyridin-2-yl)-[1,1′-biphenyl]-3-yl)-3-(((((S)-5-oxopyrrolidin-2-yl)methyl)amino)methyl)-4H-pyrido[1,2-a]pyrimidin-4-one]",3.5
4,"COc1nc(-c2cccc(-c3cccc(-c4ccn5c(=O)c(CNC(C)(C)C(=O)O)cnc5c4)c3Cl)c2Cl)ccc1CNC[C@@H]1CCC(=O)N1 [Example 184, (S)-2-(((8-(2,2′-Dichloro-3′-(6-methoxy-5-((((5-oxopyrrolidin-2-yl)methyl)amino)methyl)pyridin-2-yl)-[1,1′-biphenyl]-3-yl)-4-oxo-4H-pyrido[1,2-a]pyrimidin-3-yl)methyl)amino)-2-methylpropanoic acid]",0.1
5,"COc1nc(-c2cccc(-c3cccc(-c4cc5c(=O)n(C)c(CNCC(C)(C)C(F)(F)F)nn5c4)c3Cl)c2Cl)ccc1CNC[C@@H]1CCC(=O)N1 [Example 466, (S)-6-(2,2′-Dichloro-3′-(6-methoxy-5-((((5-oxopyrrolidin-2-yl)methyl)amino)methyl)pyridin-2-yl)-[1,1′-biphenyl]-3-yl)-3-methyl-2-(((3,3,3-trifluoro-2,2-dimethylpropyl)amino)methyl) pyrrolo[2,1-f][1,2,4]triazin-4(3H)-one]",63
6,"COc1nc(-c2cccc(-c3cccc(-c4ccn5c(=O)c(CN[C@H]6C[C@@](C)(O)C6)c(C)nc5c4)c3Cl)c2Cl)ccc1CNC[C@@H]1CCC(=O)N1 [Example 229, 8-(2,2′-Dichloro-3′-(6-methoxy-5-(((((S)-5-oxopyrrolidin-2-yl)methyl)amino)methyl)pyridin-2-yl)-[1,1′-biphenyl]-3-yl)-3-((((1s,3s)-3-hydroxy-3-methylcyclobutyl)amino)methyl)-2-methyl-4H-pyrido[1,2-a]pyrimidin-4-one]",6.9
7,"COc1nc(-c2cccc(-c3cccc(-c4cnc5c(c4)CCCC5NC[C@@H]4CCC(=O)N4)c3Cl)c2Cl)ccc1CNC[C@@H]1CCC(=O)N1 (stereo partly drawn) [Example 432, (5S)-5-(((3-(2,2′-Dichloro-3′-(6-methoxy-5-(((((S)-5-oxopyrrolidin-2-yl)-methyl)-amino)methyl)-pyridin-2-yl)-[1,1′-biphenyl]-3-yl)-5,6,7,8-tetrahydroquinolin-8-yl)amino)-methyl)-pyrrolidin-2-one]",270
8,"COc1nc(-c2cccc(-c3cccc(-c4ccn5c(=O)cc(CNC[C@@H]6CCC(=O)N6)nc5c4)c3Cl)c2Cl)ccc1CNC[C@@H]1CCC(=O)N1 [Example 156, 8-(2,2′-Dichloro-3′-(6-methoxy-5-(((((S)-5-oxopyrrolidin-2-yl)methyl)amino)methyl)pyridin-2-yl)-[1,1′-biphenyl]-3-yl)-2-(((((S)-5-oxopyrrolidin-2-yl)methyl)amino)methyl)-4H-pyrido[1,2-a]pyrimidin-4-one]",1.4
9,"COc1nc(-c2cccc(-c3cccc(-c4ccn5c(=O)c(CN(C)CCNC(=O)OC(C)(C)C)cnc5c4)c3Cl)c2Cl)ccc1CN(C)CCNC(=O)OC(C)(C)C [Example 277, tert-butyl (2-(((6-(3′-(3-(((2-((tert-butoxycarbonyl)amino)ethyl)(methyl)amino)methyl)-4-oxo-4H-pyrido[1,2-a]pyrimidin-8-yl)-2,2′-dichloro-[1,1′-biphenyl]-3-yl)-2-methoxypyridin-3-yl)methyl)(methyl)amino)ethyl)carbamate]",200
10,"COc1nc(-c2cccc(-c3cccc(-c4ccn5c(=O)c(CNC[C@@H]6CCC(=O)N6)cnc5c4)c3Cl)c2Cl)ccc1C1(CN)CC1 [Example 283, (S)-8-(3′-(5-(1-(Aminomethyl)cyclopropyl)-6-methoxypyridin-2-yl)-2,2′-dichloro-[1,1′-biphenyl]-3-yl)-3-((((5-oxopyrrolidin-2-yl)methyl)amino)methyl)-4H-pyrido[1,2-a]pyrimidin-4-one]",150
11,"COc1cc(-c2cccc(-c3cccc(-c4ccn5c(=O)c(CNC[C@@H]6CCC(=O)N6)cnc5c4)c3Cl)c2Cl)ccc1CNC[C@@H]1CCC(=O)N1 [Example 90, 8-(2,2′-Dichloro-3″-methoxy-4″-(((((S)-5-oxopyrrolidin-2-yl)methyl)amino)methyl)-[1,1′:3′,1″-terphenyl]-3-yl)-3-(((((S)-5-oxopyrrolidin-2-yl)methyl)amino)methyl)-4H-pyrido[1,2-a]pyrimidin-4-one]",1.5
12,"COc1nc(-c2cccc(-c3cccc(-c4ccc5c(n4)OCCN(CCO)C5)c3Cl)c2Cl)ccc1CNC[C@@H]1CCC(=O)N1 [Example 267, (S)-5-((((6-(2,2′-Dichloro-3′-(4-(2-hydroxyethyl)-2,3,4,5-tetrahydropyrido[3,2-f][1,4]oxazepin-8-yl)-[1,1′-biphenyl]-3-yl)-2-methoxypyridin-3-yl)methyl)amino)methyl)pyrrolidin-2-one]",0.2
13,"COc1nc(-c2cccc(-c3cccc(-c4cc5c(=O)n(C)c(CNCCC(F)(F)F)nn5c4)c3Cl)c2Cl)ccc1CNC[C@@H]1CCC(=O)N1 [Example 406, (S)-6-(2,2′-Dichloro-3′-(6-methoxy-5-((((5-oxopyrrolidin-2-yl)methyl)amino)methyl)pyridin-2-yl)-[1,1′-biphenyl]-3-yl)-3-methyl-2-(((3,3,3-trifluoropropyl)amino)methyl)pyrrolo[2,1-f][1,2,4]triazin-4(3H)-one]",33
14,"COc1nc(-c2cccc(-c3cccc(-c4ccn5c(=O)c(CNC[C@@H]6CCC(=O)N6)cnc5c4)c3Cl)c2C(F)(F)F)ccc1CNC[C@@H]1CCC(=O)N1 [Example 95, 8-(2-Chloro-3′-(6-methoxy-5-(((((S)-5-oxopyrrolidin-2-yl)methyl)amino)methyl)pyridin-2-yl)-2′-(trifluoromethyl)-[1,1′-biphenyl]-3-yl)-3-(((((S)-5-oxopyrrolidin-2-yl)methyl)amino)methyl)-4H-pyrido[1,2-a]pyrimidin-4-one]",23
15,"COc1nc(-c2cccc(-c3cccc(-c4cc5c(=O)n(C)c(CNCCCF)nn5c4)c3Cl)c2Cl)cc(Cl)c1CNC[C@@H]1CCC(=O)N1 [Example 490, (S)-6-(2,2′-Dichloro-3′-(4-chloro-6-methoxy-5-((((5-oxopyrrolidin-2-yl)methyl)amino)methyl)pyridin-2-yl)-[1,1′-biphenyl]-3-yl)-2-(((3-fluoropropyl)amino)methyl)-3-methylpyrrolo[2,1-f][1,2,4]triazin-4(3H)-one]",0.1
16,"COc1nc(-c2cccc(-c3cccc(-c4ccn5c(=O)c6c(nc5c4)N(C)CCNC6)c3Cl)c2Cl)ccc1CNC[C@@H]1CCC(=O)N1 [Example 374, (S)-10-(2,2′-Dichloro-3′-(6-methoxy-5-((((5-oxopyrrolidin-2-yl)methyl)amino)methyl)pyridin-2-yl)-[1,1′-biphenyl]-3-yl)-1-methyl-2,3,4,5-tetrahydropyrido[1′,2′:1,2]pyrimido [4,5-e][1,4]diazepin-6(1H)-one]",6.5
17,"COc1nc(-c2cccc(-c3cccc(-c4ccn5c(=O)c(CNC[C@H](C)O)cnc5c4)c3Cl)c2Cl)ccc1CNC[C@@H]1CCC(=O)N1 [Example 131, 8-(2,2′-dichloro-3′-(6-methoxy-5-(((((S)-5-oxopyrrolidin-2-yl)methyl)amino)methyl)pyridin-2-yl)-[1,1′-biphenyl]-3-yl)-3-((((S)-2-hydroxypropyl)amino)methyl)-4H-pyrido[1,2-a]pyrimidin-4-one]",1.7
18,"COc1nc(-c2cccc(-c3cccc(-c4ccn5c(=O)c(CNC[C@@H]6CCC(=O)N6)cnc5c4)c3Cl)c2Cl)cc(F)c1CNC[C@@H]1CCC(=O)N1 [Example 147, 8-(2,2′-Dichloro-3′-(4-fluoro-6-methoxy-5-(((((S)-5-oxopyrrolidin-2-yl)methyl)amino)methyl)pyridin-2-yl)-[1,1′-biphenyl]-3-yl)-3-(((((S)-5-oxopyrrolidin-2-yl)methyl)amino)methyl)-4H-pyrido[1,2-a]pyrimidin-4-one]",3.9
19,"Cc1c(-c2ccn3c(=O)c(CNC[C@@H]4CCC(=O)N4)cnc3c2)cccc1-c1cccc(-c2ccc(CNC[C@@H]3CCC(=O)N3)c(Cl)n2)c1Cl [Example 50, 8-(2′-Chloro-3′-(6-chloro-5-(((((S)-5-oxopyrrolidin-2-yl)methyl)amino)methyl)pyridin-2-yl)-2-methyl-[1,1′-biphenyl]-3-yl)-3-(((((S)-5-oxopyrrolidin-2-yl)methyl)amino)methyl)-4H-pyrido[1,2-a]pyrimidin-4-one]",8.1
20,"COc1nc(-c2cccc(-c3cccc(-c4ccn5c(=O)c(CN6C[C@@H](O)C[C@H]6C(=O)O)cnc5c4)c3Cl)c2Cl)ccc1CNC[C@@H]1CCC(=O)N1 [Example 148, (2S,4S)-1-((8-(2,2′-Dichloro-3′-(6-methoxy-5-(((((S)-5-oxopyrrolidin-2-yl)methyl)amino)methyl)pyridin-2-yl)-[1,1′-biphenyl]-3-yl)-4-oxo-4H-pyrido[1,2-a]pyrimidin-3-yl)methyl)-4-hydroxypyrrolidine-2-carboxylic acid]",0.4

# Reference: patent publication US20230143612A1 (Arbutus Biopharma Corporation, priority 2020, published 2023)
